From patent publication US9987246B2, “4-benzylsulfonyl-2-butenenitrile” (Olatec Therapeutics LLC, priority 2014, dated 2018)

How the values were obtained:
[1] = tested on: mice; test: Tail flick test (analgesic activity, 49° C. water bath); assay type: in vivo
Experimental: Tail flick test is a test of the pain response in animals. Tail flick test is used in basic pain research and to measure the effectiveness of analgesics, by observing the tail flick reaction to heat in an animal. This test assesses the nociceptive response to a local pain stimulus, and the ability of a drug to inhibit this response.
Vehicle control (dimethyl sulfoxide, DMSO) and test compound 4-benzylsulfonyl-2-butenenitrile in DMSO were administered intraperitoneally to mice with a volume of 5 mL/kg, twice, at 30 minutes before the first tail flick measurement. The test compound was administered at a dosage of 50 mg/kg. The positive control compound morphine was administered by subcutaneous injection at 8 mg/kg with a volume of 8 mL/kg, at 30 minutes before the first tail flick measurement. Each group had 10 mice.
The response of mice to heat stimulus was evaluated by measuring the time of tail-flick or tail-flick latency from 49° C. water bath. Briefly, the animal was placed in a restrainer with its tail hanging down. Approximately 2 inches of the tail was immersed in a beaker of water at 38±1° C. for about 30 seconds, and this was done twice to acclimate the animal to the procedure.
Subsequently, approximately 2 inches of the tail was immersed in a beaker of water at 49±1° C., at which point a timer was started.
Tail flick measurements were made 30, 60 and 120 minutes post administration of the dosage of test compound. An ANOVA was done, and if p<0.05, a Dunnett's t test was employed to calculate significant difference between vehicle control and test compound treated groups. A pairwise Student's t test was used to calculate differences between the morphine group and the control group.

[2] = tested on: human peripheral blood mononuclear cells; test: Pro-inflammatory cytokine release from human peripheral blood mononuclear cells in vitro; assay type: cell-based; conditions: statement only, no data or method given

Row | Structure (SMILES) | tail flick latency compared with vehicle-treated mice ([1]; 50 mg/kg intraperitoneal in DMSO, 30 minutes, p value=0.046) | tail flick latency compared with vehicle-treated mice ([1]; 50 mg/kg intraperitoneal in DMSO, 120 minutes, p value=0.020) | inhibition of pro-inflammatory cytokine release (e.g., IL-1β, IL-6, TNFα, IL-4 and IFNγ) [2] | tail flick latency compared with vehicle-treated mice ([1]; morphine 8 mg/kg subcutaneous injection, 30 minutes) | tail flick latency compared with vehicle-treated mice ([1]; morphine 8 mg/kg subcutaneous injection, 60 minutes) | tail flick latency compared with vehicle-treated mice ([1]; morphine 8 mg/kg subcutaneous injection, 120 minutes)
1 | N#CC=CCS(=O)(=O)Cc1ccccc1 (racemic) [4-benzylsulfonyl-2-butenenitrile] | statistically significant tail flick latency | statistically significant tail flick latency | effective in inhibiting pro-inflammatory cytokine release |  |  | 
2 | CN1CC[C@]23c4c5ccc(O)c4O[C@H]2[C@@H](O)C=C[C@H]3[C@H]1C5 [Morphine, morphine] |  |  |  | statistically significant tail flick latency | statistically significant tail flick latency | not at 120 minutes
